Literature values, collected in US7427608B2, “Protection against and treatment of hearing loss” (The Research Foundation of State University of New York, priority 2001, dated 2008).

Biological target: p56 lck (Homo sapiens, UniProt P06239)
Conditions: analyzed with the tyrosine kinase p56^lck; cited from earlier work

Sequence of p56 lck (P06239 whole entry, species assumed): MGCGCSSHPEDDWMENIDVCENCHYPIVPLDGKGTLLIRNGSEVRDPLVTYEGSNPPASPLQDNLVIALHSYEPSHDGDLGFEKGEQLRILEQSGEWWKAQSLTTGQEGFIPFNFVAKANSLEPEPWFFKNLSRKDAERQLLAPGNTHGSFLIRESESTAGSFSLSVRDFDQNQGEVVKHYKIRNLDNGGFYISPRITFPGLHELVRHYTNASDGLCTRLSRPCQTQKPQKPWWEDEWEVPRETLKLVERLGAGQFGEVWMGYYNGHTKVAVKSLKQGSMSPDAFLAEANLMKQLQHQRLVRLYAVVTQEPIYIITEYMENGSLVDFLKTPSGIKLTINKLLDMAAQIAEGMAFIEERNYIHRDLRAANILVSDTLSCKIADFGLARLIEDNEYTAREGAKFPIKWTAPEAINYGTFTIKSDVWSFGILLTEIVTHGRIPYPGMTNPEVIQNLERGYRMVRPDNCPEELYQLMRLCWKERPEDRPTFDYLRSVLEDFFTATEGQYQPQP

## Cc1cc(O)c2c(c1)C(=O)c1cc(O)cc(O)c1C2=O [Emodin]
  competition with ATP: ATP-competitive
